# From patent publication US10253002B2, “Compounds and methods of treating infections” (Neoculi Pty Ltd., priority 2013, dated 2019)
# Like-named read-outs stand apart in the source and are kept apart here.
# Experiments:
# [1] = test system: MRSA; experiment: Broth microdilution MIC, Example 7 (NCL812 and analogues); assay type: cell-based, Staphylococcus aureus; details: for activity against MRSA among analogues: MIC testing, two MRSA strains; for MRSA / MIC: bioassay ranking, MRSA; for MIC: Staphylococcus aureus, read-out: MRSA
# How it was run: (§1)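 Values are MICs in μg/ml from broth microdilution per CLSI, with growth scored against a drug-free well.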
# [2] = test system: VRE; experiment: as above; assay type: cell-based, Enterococcus spp.; details: for activity against VRE among analogues: MIC testing, two VRE strains; for VRE / MIC: bioassay ranking, VRE; for MIC: Enterococcus, read-out: VRE
# How it was run: as §1
# [3] = Bioassay ranking of the analogues tested; details: M + R (MRSA and VRE combined)
# [4] = test system: S. aureus isolates (HA-MRSA, CA-MRSA, methicillin-susceptible staphylococci); experiment: Kirby-Bauer disc diffusion resistotyping, Example 4; assay type: cell-based, Staphylococcus aureus
# Protocol: Antibiotic-susceptibility profiling of the isolate collection was undertaken using Kirby-Bauer disc diffusion, as recommended by the Clinical and Laboratory Standards Institute (CLSI) on Mueller-Hinton agar. Isolates were grown overnight on SBA at 37° C. Colonies were suspended in physiological saline. Turbidity was adjusted to a 0.5 McFarland standard and suspensions were spread over the medium. Antibiotic discs according to Table 9 below were transferred onto the inoculated medium and analysed after 24 h incubation at 37° C.
# [5] = test system: S. pneumoniae isolates; experiment: Disk diffusion susceptibility (CLSI/EUCAST), Example 5; assay type: cell-based, Streptococcus pneumoniae
# Protocol: Isolate susceptibility to 12 different antimicrobials (Table 16) was determined by CLSI and European Committee on Antimicrobial Susceptibility Testing (EUCAST) methods. Antimicrobials were selected based upon the CLSI and EUCAST guidelines. Standardised bacterial suspensions were spread onto MHSBA using a sterile cotton swab. Bacterial suspensions from of Streptococcus pneumoniae were standardised to an OD6O0 between 0.08 and 0.1 using a spectrophotometer and then diluted 1:20. Bacterial colonies were taken from an O/N horse blood agar plate. To ensure the purity of the 1:20 bacterial suspension, 50 μL was spread plated onto horse blood agar and incubated O/N at 37° C. with 5% CO2. The CFU was calculated and compared to the initial plate counts. Antibiotic disks (Purchased from Sigma Aldrich) were placed using a disk dispenser (Purchased from Oxoid) according to CLSI standards. MHSBA plates were incubated for 16 h-24 h at 37° C. in 5% CO2. Zones of complete inhibition were measured in triplicate to the nearest millimeter using a ruler on natural light-reflected growth, and the mode was represented as the diameter for each isolate. Pneumococcal isolates were categorised as sensitive, intermediate (I) or resistant (R) by CLSI standards and quality control (QC) ranges (Table 16).
# [6] = test system: Staphylococcus pseudintermedius isolates (MSSP and MRSP); experiment: Disk diffusion and Epsilometer susceptibility testing, Example 6; assay type: cell-based; details: for MIC: Staphylococcus pseudintermedius
structure (smiles),measurement,setting,value
CC(C)c1ccc(/C=N/NC(=N)N/N=C/c2ccc(C(C)C)cc2)cc1.Cl [NCL120],activity against MRSA among analogues,[1],greatest activity
same,MRSA,[1],7 µg/mL
same,activity against VRE among analogues,[2],greatest activity
same,VRE,[2],5 µg/mL
same,M + R,[3],6 µg/mL
CCCc1ccc(C=NNC(=N)NN=Cc2ccc(CCC)cc2)cc1.Cl [NCL121],activity against MRSA among analogues,[1],greatest activity
same,MRSA,[1],32 µg/mL
same,activity against VRE among analogues,[2],greatest activity
same,VRE,[2],28 µg/mL
same,M + R,[3],30 µg/mL
Cl.N=C(NN=Cc1ccc(F)c(F)c1)NN=Cc1ccc(F)c(F)c1 [NCL123],activity against MRSA among analogues,[1],greatest activity
same,MRSA,[1],15 µg/mL
same,activity against VRE among analogues,[2],greatest activity
same,VRE,[2],4 µg/mL
same,M + R,[3],9.5 µg/mL
CC(=NNC(=N)NN=C(C)c1ccccc1)c1ccccc1.Cl [NCL143],activity against MRSA among analogues,[1],greatest activity
same,MRSA,[1],16 µg/mL
same,activity against VRE among analogues,[2],greatest activity
same,VRE,[2],8 µg/mL
same,M + R,[3],12 µg/mL
Cl.N=C(NN=Cc1ccc2[nH]ccc2c1)NN=Cc1ccc2[nH]ccc2c1 [NCL146],activity against MRSA among analogues,[1],greatest activity
same,MRSA,[1],12 µg/mL
same,activity against VRE among analogues,[2],greatest activity
same,VRE,[2],16 µg/mL
same,M + R,[3],14 µg/mL
CCC(=NNC(=N)NN=C(CC)c1ccc(Cl)cc1)c1ccc(Cl)cc1.Cl [NCL153],activity against MRSA among analogues,[1],greatest activity
same,MRSA,[1],24 µg/mL
same,activity against VRE among analogues,[2],greatest activity
same,VRE,[2],8 µg/mL
same,M + R,[3],16 µg/mL
C/C(=N\NC(=N)N/N=C(\C)c1ccc(Br)cc1)c1ccc(Br)cc1.Cl [NCL155],activity against MRSA among analogues,[1],greatest activity
same,MRSA,[1],8 µg/mL
same,activity against VRE among analogues,[2],greatest activity
same,VRE,[2],12 µg/mL
same,M + R,[3],10 µg/mL
"Cl.N=C(NN=Cc1ccc(Cl)cc1N)NN=Cc1ccc(Cl)cc1N [NCL157, 2,2′-bis[(2-amino-4-chlorophenyl)methylene]carbonimidic Dihydrazide Hydrochloride]",activity against MRSA among analogues,[1],greatest activity
same,MIC,[1],2 µg/mL
same,MIC,[2],2.5 µg/mL
same,activity against VRE among analogues,[2],greatest activity
same,M + R,[3],2.25 µg/mL
CC/C(=N\NC(=N)N/N=C(\CC)c1ccc(Cl)cc1O)c1ccc(Cl)cc1O [NCL158],activity against MRSA among analogues,[1],greatest activity
same,MIC,[1],4 µg/mL
same,MIC,[2],4 µg/mL
same,activity against VRE among analogues,[2],greatest activity
same,M + R,[3],4 µg/mL
CC(O)Nc1cc(Cl)ccc1C=NNC(=N)NN=Cc1ccc(Cl)cc1NC(C)O.Cl (stereo not drawn) [NCL168],activity against MRSA among analogues,[1],greatest activity
same,activity against VRE among analogues,[2],greatest activity
same,M + R,[3],40 µg/mL
N=C(NN=Cc1ccc(Cl)cc1N)NN=Cc1ccc(Cl)cc1N [NCL169],activity against MRSA among analogues,[1],greatest activity
same,activity against VRE among analogues,[2],greatest activity
same,VRE,[2],32 µg/mL
same,M + R,[3],40 µg/mL
Cc1onc(-c2ccccc2)c1C(=O)N[C@@H]1C(=O)N2[C@@H]1SC(C)(C)[C@@H]2C(=O)O [Oxacillin],isolates resistant (Kirby-Bauer disc diffusion),[4]; CA-MRSA (n = 10),10.00%
same,isolates resistant (Kirby-Bauer disc diffusion),[4]; HA-MRSA (n = 10),80.00%
same,isolates resistant (Kirby-Bauer disc diffusion),[4]; Methicillin-susceptible staphylococci (n = 10),0.00%
same,"resistant isolates, number (percentage)","[4]; Unclassified (n = 2), Overall",2 (100%)
same,Total isolates resistant (Kirby-Bauer disc diffusion),[4]; all isolates (n = 30),30.00%
same,"resistant isolates, number (percentage)","[4]; mec gene complex A (n = 4), Overall",4 (100%)
same,"resistant isolates, number (percentage)","[4]; mec gene complex A (n = 4), SCCmec type II",3 (100%)
same,"resistant isolates, number (percentage)","[4]; mec gene complex A (n = 4), SCCmec type III",1 (100%)
same,"resistant isolates, number (percentage)","[4]; mec gene complex B (n = 10), Overall",2 (20%)
same,"resistant isolates, number (percentage)","[4]; mec gene complex B (n = 10), SCCmec type I",1 (50%)
same,"resistant isolates, number (percentage)","[4]; mec gene complex B (n = 10), SCCmec type IV",1 (12.5%)
same,"resistant isolates, number (percentage)","[4]; mec gene complex C2 (n = 4), Overall",1 (25%)
same,"resistant isolates, number (percentage)","[4]; mec gene complex C2 (n = 4), SCCmec type V",1 (25%)
same,disk diffusion zone diameter,[5]; A66.1,28 mm
same,disk diffusion zone diameter,[5]; D39,26 mm
same,disk diffusion zone diameter,[5]; EF3030,18 mm
same,disk diffusion zone diameter,[5]; L82016,29 mm
same,disk diffusion zone diameter,[5]; P9,26 mm
same,disk diffusion zone diameter,[5]; P21,28 mm
same,disk diffusion zone diameter,[5]; TIGR4,26 mm
same,disk diffusion zone diameter,[5]; WCH16,30 mm
same,disk diffusion zone diameter,[5]; WCH43,26 mm
same,disk diffusion zone diameter,[5]; WCH46,27 mm
same,disk diffusion zone diameter,[5]; WCH57,32 mm
same,disk diffusion zone diameter,[5]; WCH77,28 mm
same,disk diffusion zone diameter,[5]; WCH86,34 mm
same,disk diffusion zone diameter,[5]; WCH89,29 mm
same,disk diffusion zone diameter,[5]; WCH92,25 mm
same,disk diffusion zone diameter,[5]; WCH137,29 mm
same,disk diffusion zone diameter,[5]; WCH158,28 mm
same,disk diffusion zone diameter,[5]; WCH184,11 mm
same,disk diffusion zone diameter,[5]; WCH211,25 mm
same,disk diffusion zone diameter,[5]; WU2,28 mm
same,"disc diffusion zone, all MRSP isolates resistant",[6]; 13 MRSP isolates,≤ 17 mm
same,MIC,"[6]; 13 MRSP isolates, read-out: E-test MIC, all MRSP isolates resistant",≥ 0.5 µg/mL
same,MIC,"[6]; isolate S1P1, read-out: Etest MIC",> 256 µg/mL
same,MIC,"[6]; isolate S2P2, read-out: Etest MIC",> 256 µg/mL
same,MIC,"[6]; isolate S3P3, read-out: Etest MIC",> 256 µg/mL
same,MIC,"[6]; isolate S4P4, read-out: Etest MIC",2 µg/mL
same,MIC,"[6]; isolate S5P5, read-out: Etest MIC",4 µg/mL
same,MIC,"[6]; isolate S6P6, read-out: Etest MIC",> 256 µg/mL
same,MIC,"[6]; isolate S7P7, read-out: Etest MIC",> 256 µg/mL
same,MIC,"[6]; isolate S8P8, read-out: Etest MIC",> 256 µg/mL
same,MIC,"[6]; isolate S9P9, read-out: Etest MIC",4 µg/mL
same,MIC,"[6]; isolate S10P10, read-out: Etest MIC",> 256 µg/mL
same,MIC,"[6]; isolate S11P11, read-out: Etest MIC",> 256 µg/mL
same,MIC,"[6]; isolate S12P12, read-out: Etest MIC",1.5 µg/mL
same,MIC,"[6]; isolate S13P13, read-out: Etest MIC",0.125 µg/mL
same,MIC,"[6]; isolate S14P14, read-out: Etest MIC",0.25 µg/mL
same,MIC,"[6]; isolate S15P15, read-out: Etest MIC",0.25 µg/mL
same,MIC,"[6]; isolate S16P16, read-out: Etest MIC",0.19 µg/mL
same,MIC,"[6]; isolate S17P17, read-out: Etest MIC",0.25 µg/mL
same,MIC,"[6]; isolate S18P18, read-out: Etest MIC",0.25 µg/mL
same,MIC,"[6]; isolate S19P19, read-out: Etest MIC",0.25 µg/mL
same,MIC,"[6]; isolate S20P20, read-out: Etest MIC",0.25 µg/mL
same,MIC,"[6]; isolate S21P21, read-out: Etest MIC",0.125 µg/mL
same,MIC,"[6]; isolate S22P22, read-out: Etest MIC",0.25 µg/mL
same,MIC,"[6]; isolate S23P23, read-out: Etest MIC",1.5 µg/mL
same,ZD,[6]; isolate S1P1,0 mm
same,"ZD, Adl",[6]; isolate S1P1,0 mm
same,ZD,[6]; isolate S2P2,0 mm
same,"ZD, Adl",[6]; isolate S2P2,0 mm
same,ZD,[6]; isolate S3P3,0 mm
same,"ZD, Adl",[6]; isolate S3P3,0 mm
same,ZD,[6]; isolate S4P4,0 mm
same,"ZD, Adl",[6]; isolate S4P4,0 mm
same,ZD,[6]; isolate S5P5,0 mm
same,"ZD, Adl",[6]; isolate S5P5,0 mm
same,ZD,[6]; isolate S6P6,0 mm
same,"ZD, Adl",[6]; isolate S6P6,0 mm
same,ZD,[6]; isolate S7P7,0 mm
same,"ZD, Adl",[6]; isolate S7P7,0 mm
same,ZD,[6]; isolate S8P8,0 mm
same,"ZD, Adl",[6]; isolate S8P8,0 mm
same,ZD,[6]; isolate S9P9,0 mm
same,"ZD, Adl",[6]; isolate S9P9,0 mm
same,ZD,[6]; isolate S10P10,0 mm
same,"ZD, Adl",[6]; isolate S10P10,0 mm
same,ZD,[6]; isolate S11P11,0 mm
same,"ZD, Adl",[6]; isolate S11P11,0 mm
same,ZD,[6]; isolate S12P12,13 mm
same,"ZD, Adl",[6]; isolate S12P12,16 mm
same,ZD,[6]; isolate S13P13,26 mm
same,"ZD, Adl",[6]; isolate S13P13,36 mm
same,ZD,[6]; isolate S14P14,22 mm
same,"ZD, Adl",[6]; isolate S14P14,29 mm
same,ZD,[6]; isolate S15P15,22 mm
same,"ZD, Adl",[6]; isolate S15P15,25 mm
same,ZD,[6]; isolate S16P16,26 mm
same,"ZD, Adl",[6]; isolate S16P16,34 mm
same,ZD,[6]; isolate S17P17,22 mm
same,"ZD, Adl",[6]; isolate S17P17,26 mm
same,ZD,[6]; isolate S18P18,22 mm
same,"ZD, Adl",[6]; isolate S18P18,30 mm
same,ZD,[6]; isolate S19P19,25 mm
same,"ZD, Adl",[6]; isolate S19P19,32 mm
same,ZD,[6]; isolate S20P20,23 mm
same,"ZD, Adl",[6]; isolate S20P20,30 mm
same,ZD,[6]; isolate S21P21,27 mm
same,"ZD, Adl",[6]; isolate S21P21,37 mm
same,ZD,[6]; isolate S22P22,21 mm
same,"ZD, Adl",[6]; isolate S22P22,26 mm
same,ZD,[6]; isolate S23P23,13 mm
same,"ZD, Adl",[6]; isolate S23P23,14 mm
